The supplement of paper PMC11208160

Assay: recombinant barcode read abundance after kanamycin selection (control-corrected) (log10(CPM+1)); higher = more efficient recombination; sequences stand for … in AGTGCAGAGAAAATCGGCCAGTTTTCTCTGCCTGCAGTCCGCATGCCGT…AGATTTATGCAGCGGACTGCCTTTCTCCCAAAGTGATAAACCGGACAGTATCATGGACCGGTTTTCCCGGTAATCCGTATTTGCAAGGTTGGTTTCACT; site = the 11-nt target
Outline: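 Targets and IS621 bridge RNA target-binding loops were paired in oligos, each with a promoter, a barcode and the J23119-driven first 104 bridge RNA bases. A vector carrying the remaining 73 bp and a T7-inducible recombinase received these by Gibson cloning, and the pool was co-electroporated into E. coli with a donor plasmid. Duplicate plates contained chloramphenicol/ampicillin LB agar (control) or chloramphenicol/ampicillin/kanamycin with 0.1 mM IPTG. Recombination efficiency comes from averaged, control-corrected counts per million of recombinant-junction barcodes, reported as log10(CPM+1).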
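Further: IS621 recombinase and bridge RNA in Escherichia coli cells.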

Sequence	recombinant barcode read abundance (log10)
ATGAAGCCTTGGGTTCTAACCTGTTGCTT (site ATGAAGCCTAA)	0.107
ATGACTACTTGGGTTCTAACCTGTTGCTC (site ATGACTACTGA)	0.423
ATGACTACTTGGGTTCTAACCTGTTGCTC (site ATGACTACTTA)	0.135
ATGAGGTCTTGGGTTCTAACCTGTTGCTC (site ATGAGCTCTTA)	0.194
ATGAGGTCTTGGGTTCTAACCTGTTGCTC (site ATGAGGTCTGA)	1.43
ATGATTACTTGGGTTCTAACCTGTTGCCT (site ATAGTTACTAG)	0.0836
ATGATTACTTGGGTTCTAACCTGTTGCCT (site ATGATTACTAG)	0.385
ATGCAACCTTGGGTTCTAACCTGTTGCCT (site ATGCAAACTAG)	0.216
ATGCAACCTTGGGTTCTAACCTGTTGCCT (site ATGCAACCTAG)	0.827
ATGCAACCTTGGGTTCTAACCTGTTGCCT (site ATGCAAGCTAG)	0.362
ATGCAACCTTGGGTTCTAACCTGTTGCCT (site ATGCAATCTAG)	0.293
ATGCACCCTTGGGTTCTAACCTGTTGCCT (site ATGCACCCTAG)	2
ATGCACCCTTGGGTTCTAACCTGTTGCCT (site ATGCGCCCTAG)	0.977
ATGCCGACTTGGGTTCTAACCTGTTGCCT (site ATGCCAACTAG)	0.101
ATGCCGACTTGGGTTCTAACCTGTTGCCT (site ATGCCCACTAG)	0.0898
ATGCCGACTTGGGTTCTAACCTGTTGCCT (site ATGCCGACTAG)	1.02

Sequence	recombinant barcode read abundance (log10)
ATGCCGACTTGGGTTCTAACCTGTTGCCT (site ATGCCTACTAG)	0.11
ATGCGAGCTTGGGTTCTAACCTGTTGCCG (site ATGCGAGCTCA)	0.177
ATGCGAGCTTGGGTTCTAACCTGTTGCCG (site ATGCGAGCTCC)	0.358
ATGCGAGCTTGGGTTCTAACCTGTTGCCG (site ATGCGAGCTCG)	0.815
ATGCGAGCTTGGGTTCTAACCTGTTGCCG (site ATGCGAGCTCT)	0.404
ATGCGCCCTTGGGTTCTAACCTGTTGCCT (site ATGCACCCTAG)	0.43
ATGCGCCCTTGGGTTCTAACCTGTTGCCT (site ATGCGCCCTAG)	0.717
ATGCTACCTTGGGTTCTAACCTGTTGCGG (site ATGCTACCTCC)	1.2
ATGCTACCTTGGGTTCTAACCTGTTGCGG (site CACGGGGCTAG)	0.0226
ATGGGAGCTTGGGTTCTAACCTGTTGCGA (site AGGGGAGCTCC)	0.627
ATGGGAGCTTGGGTTCTAACCTGTTGCGA (site ATGGGAGCTTC)	1.14
ATGGTGCCTTGGGTTCTAACCTGTTGCCT (site ATGGTGACTAG)	0.098
ATGGTGCCTTGGGTTCTAACCTGTTGCCT (site ATGGTGCCTAG)	2.65
ATGGTGCCTTGGGTTCTAACCTGTTGCCT (site ATGGTGGCTAG)	0.417
ATGGTGCCTTGGGTTCTAACCTGTTGCCT (site ATGGTGTCTAG)	2.03
ATGTAGGCTTGGGTTCTAACCTGTTGCCT (site ATGTAGGCTAG)	0.137
